Experimental data from US20210308089A1, “METHODS OF TREATING AND/OR PREVENTING VIRAL INFECTIONS AND/OR DISEASES CAUSED BY VIRUSES IN A SUBJECT IN NEED THEREOF” (priority 2020, published 2021).
Where two headings read alike, the source gives them in different places.

Tested on: patients of the REDUCE-IT and earlier EPA placebo-controlled trials
Format: in vivo, human
Conditions: R-I
[1] = Bilirubin shift: normal to high (Day 120)
[2] = Bilirubin shift: normal to high (Day 360)
[3] = Bilirubin shift: normal to high (Day 720)
[4] = Bilirubin shift: normal to high (Day 1080)
[5] = Bilirubin shift: normal to high (Day 1440)
[6] = Bilirubin shift: normal to high (Day 1800)

CC/C=C\C/C=C\C/C=C\C/C=C\C/C=C\CCCC(=O)OCC [icosapent ethyl, eicosapentaenoic acid ethyl ester]
Risk Ratio (95% CI): ALP shift: normal to high (Day 1080): 0.395 (0.280 to 0.528) 4
Risk Ratio (95% CI): ALP shift: normal to high (Day 1440): 0.406 (0.287 to 0.575) 3
Risk Ratio (95% CI): ALP shift: normal to high (Day 1800): 0.439 (0.280 to 0.688) 3
Risk Ratio (95% CI): ALP shift: normal to low (Day 120): 3.341 (1.343 to 8.311) −4
Risk Ratio (95% CI): ALP shift: normal to low (Day 360): 2.394 (0.994 to 5.767) −3
Risk Ratio (95% CI): ALP shift: normal to low (Day 720): 2.783 (1.178 to 6.572) −4
Risk Ratio (95% CI): ALP shift: normal to low (Day 1080): 1.938 (0.831 to 4.522) −3
Risk Ratio (95% CI): ALP shift: normal to low (Day 1440): 1.199 (0.562 to 2.556) −1
Risk Ratio (95% CI): Albumin high (Day 120): 2.263 (1.388 to 3.689) −3
Risk Ratio (95% CI): Albumin high (Day 360): 1.901 (1.217 to 2.969) −3
Risk Ratio (95% CI): Albumin high (Day 720): 1.365 (0.975 to 1.911) −2
Risk Ratio (95% CI): Albumin high (Day 1080): 1.449 (0.993 to 2.115) −2
Risk Ratio (95% CI): Albumin high (Day 1440): 1.540 (1.001 to 2.369) −2
Risk Ratio (95% CI): Albumin shift: normal to high (Day 120): 3.055 (1.709 to 5.461) −4
Risk Ratio (95% CI): Albumin shift: normal to high (Day 360): 2.364 (1.388 to 4.027) −3
Risk Ratio (95% CI): Albumin shift: normal to high (Day 720): 1.475 (1.028 to 2.116) −2
Risk Ratio (95% CI): Albumin shift: normal to high (Day 1080): 1.257 (0.848 to 1.864) −2
Risk Ratio (95% CI): Albumin shift: normal to high (Day 1440): 1.531 (0.974 to 2.408) −2
Risk Ratio (95% CI): Bilirubin >1x ULN to 2x ULN: 3.157 (2.392 to 4.168) −4
Risk Ratio (95% CI): Bilirubin high (Day 120): 4.288 (2.849 to 6.454) −4
Risk Ratio (95% CI): Bilirubin high (Day 360): 3.263 (2.203 to 4.832) −4
Risk Ratio (95% CI): Bilirubin high (Day 720): 5.052 (3.174 to 8.039) −5
Risk Ratio (95% CI): Bilirubin high (Day 1080): 2.430 (1.683 to 3.508) −3
Risk Ratio (95% CI): Bilirubin high (Day 1440): 3.543 (2.243 to 5.596) −4
Risk Ratio (95% CI): Bilirubin high (Day 1800): 2.670 (1.569 to 4.545) −4
Risk Ratio (95% CI): Bilirubin shift: normal to high (Day 120): 5.106 (2.754 to 9.467) −5
Risk Ratio (95% CI): Bilirubin shift: normal to high (Day 360): 5.431 (2.773 to 10.636) −5
Risk Ratio (95% CI): Bilirubin shift: normal to high (Day 720): 4.803 (2.516 to 9.168) −4
Risk Ratio (95% CI): Bilirubin shift: normal to high (Day 1080): 2.235 (1.374 to 3.636) −3
Risk Ratio (95% CI): Bilirubin shift: normal to high (Day 1440): 5.445 (2.687 to 11.034) −5
Risk Ratio (95% CI): Bilirubin shift: normal to high (Day 1800): 2.556 (1.242 to 5.259) −4
Risk Ratio (95% CI): Calcium high (Day 120): 0.799 (0.517 to 1.236) 2
Risk Ratio (95% CI): Calcium high (Day 360): 0.915 (0.593 to 1.412) 1
Risk Ratio (95% CI): Calcium high (Day 720): 0.767 (0.491 to 1.200) 2
Risk Ratio (95% CI): Calcium low (Day 120): 1.399 (0.444 to 4.404) −2
Risk Ratio (95% CI): Calcium low (Day 360): 9.856 (1.262 to 76.953) −5
Risk Ratio (95% CI): Calcium low (Day 720): 2.911 (0.789 to 10.744) −4
Risk Ratio (95% CI): DBP High (≥100 mmHg): 1.121 (0.931 to 1.350) −1
Risk Ratio (95% CI): DBP High and Rose ≥10 mmHg: 1.092 (0.888 to 1.344) −1
Risk Ratio (95% CI): DBP Low (≤50 mmHG): 1.136 (0.732 to 1.763) −1
Risk Ratio (95% CI): DBP Low and dropped ≥10 mmHg: 1.030 (0.644 to 1.648) −1
Risk Ratio (95% CI): DBP dropped ≥10 mmHG: 1.087 (1.028 to 1.150) −1
Risk Ratio (95% CI): DBP rose ≥10 mmHg: 0.983 (0.927 to 1.041) 1
Risk Ratio (95% CI): High platelets (Day 720): 1.503 (1.007 to 2.242) −2
Risk Ratio (95% CI): Low platelets (Day 360): 0.366 (0.253 to 0.530) 4
Risk Ratio (95% CI): Low platelets (Day 720): 0.799 (0.608 to 1.051) 2
Risk Ratio (95% CI): Low platelets (Day 1080): 0.688 (0.512 to 0.925) 2
Risk Ratio (95% CI): Platelet count: PCS Low <100 × 10^3/uL: 0.442 (0.258 to 0.758) 3
Risk Ratio (95% CI): SBP High (≥160 mmHg): 0.912 (0.833 to 1.000) 1
Risk Ratio (95% CI): SBP High and rose ≥20 mmHg: 0.908 (0.805 to 1.023) 1
Risk Ratio (95% CI): SBP Low (≤90 mmHg): 1.819 (1.093 to 3.055) −3
Risk Ratio (95% CI): SBP dropped ≥20 mmHg: 1.117 (1.033 to 1.208) −1
Risk Ratio (95% CI): SBP low and dropped ≥20 mmHg: 1.422 (0.792 to 2.553) −2
Risk Ratio (95% CI): SBP rose ≥20 mmHg: 0.976 (0.912 to 1.045) 1
Risk Ratio (95% CI): Urate high (Day 120): 1.398 (1.246 to 1.568) −2
Risk Ratio (95% CI): Urate high (Day 360): 1.350 (1.197 to 1.523) −2
Risk Ratio (95% CI): Urate high (Day 720): 1.323 (1.162 to 1.506) −2
Risk Ratio (95% CI): Urate high (Day 1080): 1.102 (0.961 to 1.263) −1
Risk Ratio (95% CI): Urate high (Day 1440): 1.109 (0.956 to 1.286) −1
Risk Ratio (95% CI): Urate high (Day 1800): 1.084 (0.883 to 1.331) −1
Risk Ratio (95% CI): Urate shift: normal to high (Day 120): 1.689 (1.369 to 2.084) −3
Risk Ratio (95% CI): Urate shift: normal to high (Day 360): 1.674 (1.363 to 2.056) −3
Risk Ratio (95% CI): Urate shift: normal to high (Day 720): 1.513 (1.227 to 1.865) −2
Risk Ratio (95% CI): Urate shift: normal to high (Day 1080): 1.118 (0.910 to 1.374) −1
Risk Ratio (95% CI): Urate shift: normal to high (Day 1440): 1.079 (0.879 to 1.324) −1
Risk Ratio (95% CI): Urate shift: normal to high (Day 1800): 1.029 (0.782 to 1.355) −1
Risk Ratio (95% CI): Urate shift: normal to low (Day 120): 1.654 (0.396 to 6.915) −2
Risk Ratio (95% CI): Urate shift: normal to low (Day 360): 0.733 (0.255 to 2.110) 2
Risk Ratio (95% CI): Urate shift: normal to low (Day 720): 0.361 (0.096 to 1.360) 4
Risk Ratio (95% CI): Urate shift: normal to low (Day 1080): 0.474 (0.119 to 1.893) 3
Risk Ratio (95% CI): Urate shift: normal to low (Day 1440): 0.210 (0.046 to 0.973) 4
Risk Ratio (95% CI): Uric acid PCS High >7.5 mg/dL (Women): 1.180 (0.974 to 1.429) −1
Risk Ratio (95% CI): Uric acid PCS High >8.0 mg/dL (Men): 1.313 (1.183 to 1.458) −2
Risk Ratio (95% CI): Uric acid PCS Low <1.9 mg/dL (Women): 1.000 (0.063 to 15.986) −1
Risk Ratio (95% CI): Uric acid PCS Low <2.5 mg/dL (Men): 0.650 (0.324 to 1.305) 2
ARR (Bilirubin >1x ULN to 2x ULN): 3.5%
NNT (Bilirubin >1x ULN to 2x ULN): −29
Risk Ratio (95% CI) (Bilirubin >1x ULN to 2x ULN): 3.157 (2.392 to 4.168) −4
ARR (Bilirubin >2x ULN to 3x ULN): 0.2%
NNT (Bilirubin >2x ULN to 3x ULN): −497
Risk Ratio (95% CI) (Bilirubin >2x ULN to 3x ULN): 3.668 (1.024 to 13.136) −4
ARR (Bilirubin high (Day 120)): 2.4%
NNT (Bilirubin high (Day 120)): −42
Risk Ratio (95% CI) (Bilirubin high (Day 120)): 4.288 (2.849 to 6.454) −4
ARR (Bilirubin high (Day 360)): 2.0%
NNT (Bilirubin high (Day 360)): −50
Risk Ratio (95% CI) (Bilirubin high (Day 360)): 3.263 (2.203 to 4.832) −4
ARR (Bilirubin high (Day 720)): 2.6%
NNT (Bilirubin high (Day 720)): −38
Risk Ratio (95% CI) (Bilirubin high (Day 720)): 5.052 (3.174 to 8.039) −5
ARR (Bilirubin high (Day 1080)): 2.0%
NNT (Bilirubin high (Day 1080)): −50
Risk Ratio (95% CI) (Bilirubin high (Day 1080)): 2.430 (1.683 to 3.508) −3
ARR (Bilirubin high (Day 1440)): 2.5%
NNT (Bilirubin high (Day 1440)): −40
Risk Ratio (95% CI) (Bilirubin high (Day 1440)): 3.543 (2.243 to 5.596) −4
ARR (Bilirubin high (Day 1800)): 2.3%
NNT (Bilirubin high (Day 1800)): −43
Risk Ratio (95% CI) (Bilirubin high (Day 1800)): 2.670 (1.569 to 4.545) −4
ARR [1]: 1.3%
NNT [1]: −77
Risk Ratio (95% CI) [1]: 5.106 (2.754 to 9.467) −5
ARR [2]: 1.3%
NNT [2]: −80
Risk Ratio (95% CI) [2]: 5.431 (2.773 to 10.636) −5
ARR [3]: 1.3%
NNT [3]: −76
Risk Ratio (95% CI) [3]: 4.803 (2.516 to 9.168) −4
ARR [4]: 1.0%
NNT [4]: −95
Risk Ratio (95% CI) [4]: 2.235 (1.374 to 3.636) −3
ARR [5]: 1.8%
NNT [5]: −57
Risk Ratio (95% CI) [5]: 5.445 (2.687 to 11.034) −5
ARR [6]: 1.2%
NNT [6]: −81
Risk Ratio (95% CI) [6]: 2.556 (1.242 to 5.259) −4
Placebo-Adjusted % Change (Erythrocytes (Day 120)): +.72%
Placebo-Adjusted % Change (Erythrocytes (Day 360)): +.26%
Placebo-Adjusted % Change (Erythrocytes (Day 720)): +.29%
Placebo-Adjusted % Change (Erythrocytes (Day 1080)): +.43%
Placebo-Adjusted % Change (Erythrocytes (Day 1440)): +.66%
ARR (Erythrocytes low (Day 120)): −1.3%
NNT (Erythrocytes low (Day 120)): 77
Risk Ratio (95% CI) (Erythrocytes low (Day 120)): 0.814 (0.685 to 0.968) 1
ARR (Erythrocytes low (Day 360)): −0.4%
NNT (Erythrocytes low (Day 360)): 223
Risk Ratio (95% CI) (Erythrocytes low (Day 360)): 0.932 (0.781 to 1.113) 1
ARR (Erythrocytes low (Day 720)): −0.4%
NNT (Erythrocytes low (Day 720)): 251
Risk Ratio (95% CI) (Erythrocytes low (Day 720)): 0.940 (0.779 to 1.133) 1
ARR (Erythrocytes low (Day 1080)): −1.7%
NNT (Erythrocytes low (Day 1080)): 60
Risk Ratio (95% CI) (Erythrocytes low (Day 1080)): 0.781 (0.642 to 0.950) 2
ARR (Erythrocytes low (Day 1440)): −0.8%
NNT (Erythrocytes low (Day 1440)): 120
Risk Ratio (95% CI) (Erythrocytes low (Day 1440)): 0.888 (0.720 to 1.093) 1
ARR (Erythrocytes low (Day 1800)): −0.2%
NNT (Erythrocytes low (Day 1800)): 485
Risk Ratio (95% CI) (Erythrocytes low (Day 1800)): 0.975 (0.756 to 1.258) 1
Placebo-Adjusted % Change (Hematocrit (Day 120)): +.42%
